Consider 13 molecules from patent US20080214537A1, “BRIDGED PHENANTHRIDINES” (CARA THERAPEUTICS, INC., priority 2007, published 2008).

The target in test [1] is human CB2 receptor (hCB2) (Homo sapiens, UniProt P34972). The test can be described thus: cAMP assay (LANCE TR-FRET) in CHO-K1 cells expressing hCB2. Format: cell-based. Conditions: for Emax: CHO-K1, intrinsic activity: percent maximal activation compared to full activation by CP55,940 (1 μM = 100%), read-out: hCB2 % Max Range; for EC50: CHO-K1 cells stably expressing hCB2, intracellular cAMP, NKH-477 prestimulated, average of at least three replicates. As for the experimental part:
(§1) The ability of compounds to act as agonists or inverse agonists at human CB2 and CB1 receptors (hCB2, hCB1, respectively) was determined by measuring changes in intracellular cAMP levels. Chinese Hamster Ovary (CHO-K1) cell lines stably expressing hCB2 (Genebank: X74328) or hCB1 (Genebank: X54937) were purchased from Euroscreen (Gosselies, Belgium).
(§2) Cell lines were grown in suspension in EX-CELL 302 CHO Serum-free medium (Sigma, catalog #14324C) supplemented with 1% Fetal Bovine Serum, glutamine and with or without non-essential amino-acids under 0.4 mg/mL G418 selection.
(§3) Receptor mediated responses were determined by measuring changes in intracellular cAMP using LANCE cAMP detection kit (catalog #AD0264, PerkinElmer, Wellesley, Mass.) based on time-resolved fluorescence resonance energy transfer (TR-FRET). Changes in cAMP were determined in cells pre-incubated with IBMX (isobutyl methylxanthine) and prestimulated with NKH-477 (a water soluble forskolin derivative, catalog #1603, Tocris, Ellisville, Mo.) to increase basal cAMP levels as detailed below.
(§4) On the day of the experiment, cells were spun at low speed for 5 min at room temperature. The supernatant was removed and cells were resuspended in stimulation buffer (Hanks Buffered Salt Solution/5 mM HEPES, containing 0.5 mM IBMX (catalog #17018, Sigma) and 0.02% BSA (PerkinElmer, catalog #CR84-100)). Cell clumps were removed by filtering through cell strainer 40 μm (BD Falcon, Discovery Labware, Bedford, Mass.) and diluted to 2×10^5 cells/mL. Antibody supplied with the LANCE cAMP immunoassay kit was then added according to the manufacturer's instructions. An aliquot of cells was taken for un-induced controls. To the remaining cells was added NKH-477 (a water soluble forskolin derivative, Tocris catalog #1603) to a final concentration of 2-8 μM. Cells were then incubated for either 25 or 30 min at room temperature prior to adding to Proxiplates containing test compounds (final DMSO concentration was less than 0.5%) with a Multidrop bulk dispenser, followed by a sixty minute incubation at room temperature. The response was stopped by addition of the detection mix supplied with the LANCE kit.
(§5) The reagents were allowed to equilibrate for three hours prior to reading on an Envision multi-mode detector (PerkinElmer). TR-FRET was measured using a 330-380 nm excitation filter, 615 and 665 nm emission filters, dichroic mirror 380 nm and Z=1 mm.
(§6) Cyclic AMP concentrations in each well were back-calculated from a cAMP standard curve run concurrently during each assay. Each plate contained 16 wells of forskolin stimulated cells and 16 wells of forskolin plus CP55,940-treated. CP55,940-treated cells were treated with CP55,940 (Tocris catalog #0949) at 1 μM and the maximal response was used as the full range (100%) standard. WIN55,212 (Tocris catalog #1038) was used as an internal standard. Concentrations of cAMP were expressed as a percent of the difference of these two groups of wells. Concentration-response data including EC50 (the concentration of compound producing 50% of the maximal response) and intrinsic activity (the percent maximal activation compared to full activation by CP55,940) were determined using a four-parameter non-linear regression algorithm (Xlfit equation 251, IDBS). Assays were performed with at least three replicates per compound and averaged results for the several compounds of the invention are shown in Table I.

The target in test [2] is human CB1 receptor (hCB1) (Homo sapiens, UniProt P21554). The test can be described thus: cAMP assay (LANCE TR-FRET) in CHO-K1 cells expressing hCB1. Format: cell-based. Conditions: activity on hCB1 represents inverse agonism; for Emax: CHO-K1, percent of range defined by CP55,940 (1 μM = 100%), read-out: hCB1 % Max Range; for EC50: CHO-K1 cells stably expressing hCB1, intracellular cAMP, NKH-477 prestimulated. On the procedure: as §1, §2, §3, §4, §5
as §6, with “IDBS).” for “IDBS). Assays were performed with at least three replicates per compound and averaged results for the several compounds of the invention are shown in Table I.”
(In general: Changes in cAMP serve as a functional read-out for many G protein-coupled receptors.)

One may read the EC50 as the concentration needed to bring the measured effect to its halfway point. Low values mean higher potency in that assay, high ones lower potency in that assay.

Chain of human CB1 receptor (hCB1) (P21554 whole entry): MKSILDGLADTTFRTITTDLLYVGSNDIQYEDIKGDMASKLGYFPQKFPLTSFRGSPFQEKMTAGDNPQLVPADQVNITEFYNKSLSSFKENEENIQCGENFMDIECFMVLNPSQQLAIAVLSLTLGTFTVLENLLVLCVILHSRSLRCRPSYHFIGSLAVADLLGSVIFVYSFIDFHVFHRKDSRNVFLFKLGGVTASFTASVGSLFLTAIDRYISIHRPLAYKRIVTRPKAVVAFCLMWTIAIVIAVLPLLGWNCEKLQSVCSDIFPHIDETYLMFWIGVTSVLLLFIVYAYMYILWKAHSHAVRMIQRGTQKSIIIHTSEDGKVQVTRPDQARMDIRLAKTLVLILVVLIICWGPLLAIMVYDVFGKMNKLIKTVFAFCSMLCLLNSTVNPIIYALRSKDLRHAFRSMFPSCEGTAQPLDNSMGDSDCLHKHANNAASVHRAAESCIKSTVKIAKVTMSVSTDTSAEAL
Chain of human CB2 receptor (hCB2) (P34972 whole entry): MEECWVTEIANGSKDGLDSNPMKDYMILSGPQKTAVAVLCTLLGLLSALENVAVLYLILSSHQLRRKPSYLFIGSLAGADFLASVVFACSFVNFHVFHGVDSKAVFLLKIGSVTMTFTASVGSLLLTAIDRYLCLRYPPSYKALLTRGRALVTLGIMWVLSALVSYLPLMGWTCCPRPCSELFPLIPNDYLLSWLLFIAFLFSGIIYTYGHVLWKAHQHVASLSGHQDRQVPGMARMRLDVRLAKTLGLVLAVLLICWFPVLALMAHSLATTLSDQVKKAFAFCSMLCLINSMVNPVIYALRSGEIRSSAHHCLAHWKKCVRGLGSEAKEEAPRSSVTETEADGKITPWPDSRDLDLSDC

As for `Cn1nccc1C1Nc2ccc(S(=O)(=O)N3CCCC3)cc2C2C3CCC(C3)C12` (stereo not shown) [(42), Bridged 6-(1-methyl-1H-pyrazol-5-yl)-2-(pyrrolidin-1-ylsulfonyl)-5,6,6a,7,8,9,10,10a-octahydrophenanthridine], the figures for the Emax in test [1] and in test [2] were 100% and less than 40%, respectively. Also, the EC50 in test [1] was 0.91 nM; in test [2], greater than 10000 nM.

Regarding `Cc1nc(-c2ccc3c(c2)C2C4CCC(C4)C2C(c2ccccc2)N3)cs1` (stereo not shown) [(43), Bridged 2-methyl-4-(6-phenyl-5,6,6a,7,8,9,10,10a-octahydrophenanthridin-2-yl)thiazole], in test [1], the Emax was 64.6% and a half-maximal response (EC50) required 217 nM. Also, in test [2], the Emax is 182% and the response was half-maximal at 3850 nM (EC50).

`Cc1nc(-c2ccc3c(c2)C2C4CCC(C4)C2C(c2ccnn2C)N3)cs1` (stereo not shown) [(44), Bridged 2-methyl-4-(6-(1-methyl-1H-pyrazol-5-yl)-5,6,6a,7,8,9,10,1 0a-octahydrophenanthridin-2-yl)thiazole]: in test [1], the Emax worked out at 70.2% and the EC50 was 187 nM. In addition, in test [2], the Emax amounted to 111% and the EC50 amounted to 2930 nM.

As to `CCCCc1nnc(-c2ccc3c(c2)C2C4CCC(C4)C2C(c2ccccc2)N3)o1` (stereo not shown) [(45), Bridged 2-butyl-5-(6-phenyl-5,6,6a,7,8,9,10,10a-octahydrophenanthridin-2-yl)-1,3,4-oxadiazole], in test [1], the Emax turned out to be 96.8% and the EC50 was 70.4 nM. In test [2], the Emax was less than 40% and the EC50 was greater than 10000 nM.

As for `CC(=O)NS(=O)(=O)c1ccc2c(c1)C1C3CCC(C3)C1C(c1ccnn1C)N2` (stereo not shown) [(47), Bridged N-(6-(1-methyl-1H-pyrazol-5-yl)-5,6,6a,7,8,9,10,10a-octahydrophenanthridin-2-ylsulfonyl)acetamide], in test [1], the Emax is 82.5% and it took 1490 nM to reach a half-maximal effect (EC50). In addition, in test [2], the Emax is less than 40% and the EC50 was greater than 10000 nM.

In the case of `O=S(=O)(c1ccc2c(c1)C1CC=CC1C(c1ccccc1)N2)N1CCCCC1` (stereo not shown) [(48), 4-phenyl-8-(piperidin-1-ylsulfonyl)-3a,4,5,9b-tetrahydro-1H-cyclopenta[c]quinoline], in test [1], the Emax came to 82.3% and the EC50 is 73.9 nM. Also, in test [2], the Emax is less than 40% and the EC50 is greater than 10000 nM.

For `CN(C)S(=O)(=O)c1ccc2c(c1)C1CC=CC1C(c1ccccc1)N2` (stereo not shown) [(49), N,N-dimethyl-4-phenyl-3a,4,5,9b-tetrahydro-1H-cyclopenta[c]quinoline-8-sulfonamide], in test [1], the Emax was less than 40% and the half-maximal effective concentration (EC50) is greater than 10000 nM. Further, in test [2], the Emax is 61.8% and the midpoint of the response, the EC50, lay at 1040 nM.

For the molecule `CC(C)S(=O)(=O)N1c2ccc(S(=O)(=O)N(C)C)cc2C2C3CCC(C3)C2C1c1ccccc1` (stereo not shown) [(50), Bridged 5-(isopropylsulfonyl)-N,N-dimethyl-6-phenyl-5,6,6a,7,8,9,10,10a-octahydrophenanthridine-2-sulfonamide], in test [1], the Emax was 81.2% and a half-maximal effect (EC50) was put at 1500 nM. Moreover, in test [2], the Emax is less than 40% and the EC50 was greater than 10000 nM.

For the molecule `CC(C)S(=O)(=O)Nc1ccc2c(c1)C1C3CCC(C3)C1C(c1ccccc1)N2` (stereo not shown) [(51), Bridged N-(6-phenyl-5,6,6a,7,8,9,10,10a-octahydrophenanthridin-2-yl)propane-2-sulfonamide], in test [1], the Emax was found to be 96.8% and the EC50 was 1.62 nM. Moreover, in test [2], the Emax worked out at 100% and a half-maximal response (EC50) required 2210 nM.

For `CS(=O)(=O)N(c1ccc2c(c1)C1C3CCC(C3)C1C(c1ccccc1)N2)S(C)(=O)=O` (stereo not shown) [(52), Bridged N-(methylsulfonyl)-N-(6-phenyl-5,6,6a,7,8,9,10,10a-octahydrophenanthridin-2-yl)methanesulfonamide], in test [1], the Emax amounted to 102% and the EC50 stood at 0.63 nM. Besides, in test [2], the Emax was less than 40% and the EC50 was greater than 10000 nM.

As to `O=C(NCC1CC1)c1ccc2c(c1)C1C3CCC(C3)C1C(c1ccccc1)N2` (stereo not shown) [Compound (2d), Methylene bridged N-(cyclopropylmethyl)-6-phenyl-5,6,6a,7,8,9,10,10a-octahydrophenanthridine-2-carboxamide], in test [1], the Emax came out at 84% and the EC50 is 19 nM. In test [2], the Emax is less than 40% and the half-maximal effective concentration (EC50) was greater than 10000 nM.

Regarding `CCCCC(=O)Nc1ccc2c(c1)C1C3CCC(C3)C1C(c1ccccc1)N2` (stereo not shown) [Compound (4d), Bridged N-(6-phenyl-5,6,6a,7,8,9,10,10a-octahydrophenanthridin-2-yl)pentanamide], in test [1], the Emax was 92% and the EC50 came out at 6.9 nM. Also, in test [2], the Emax was less than 40% and the EC50 was greater than 10000 nM.

Regarding `CCCNC(=O)Nc1ccc2c(c1)C1C3CCC(C3)C1C(c1ccccc1)N2` (stereo not shown) [Compound (5d), Bridged 1-(6-phenyl-5,6,6a,7,8,9,10,10a-octahydrophenanthridin-2-yl)-3-propylurea], in test [1], the Emax is 73% and the EC50 was found to be 289 nM. In addition, in test [2], the Emax came to 46% and a half-maximal response (EC50) required 2150 nM.
